Melting point data for 24 compounds are collected here from patent US7691855B2, “Phenyl-[4-(3-phenyl-1h-pyrazol-4-yl)-pyrimidin-2-yl)-amine derivatives” (Novartis AG, priority 2002, dated 2010).

For orientation: melting point means the temperature, or range, at which the solid turns liquid. For `COc1ccc(Nc2nccc(-c3cn(C)nc3-c3ccc(Cl)cc3Cl)n2)cc1OC` [Example 57, {4-[3-(2,4Dichloro-phenyl)-1-methyl-1H-pyrazol-4-yl]-pyrimidin-2-yl}-(3,4-dimethoxy-phenyl)-amine], the melting point was determined as 180 °C.

As for `Cc1ccc(-c2nn(CCN(C)C)cc2-c2ccnc(Nc3ccc(CN4CCN(C)CC4)cc3)n2)cc1` [Example 83, {4-[1-(2-Dimethylamino-ethyl)-3-p-tolyl-1H-pyrazol-4-yl]-pyrimidin-2-yl}-[4-(4-methyl-piperazin-1-ylmethyl)-phenyl]-amine], the melting point stood at 62 °C.

Compound `COc1cccc(Nc2nccc(-c3c[nH]nc3-c3ccc(Cl)cc3)n2)c1` [Example 69, {4-[3-(4-Chloro-phenyl)-1H-pyrazol-4-yl]-pyrimidin-2-yl}-(3-methoxy-phenyl)-amine] registered a melting point of 261 °C.

Compound `CN(C)CCn1ncc(-c2ccnc(Nc3ccc(CN4CCN(C)CC4)cc3)n2)c1-c1ccc(Cl)cc1` [Example 77, {4-[5-(4-Chloro-phenyl)-1-(2-dimethylamino-ethyl)-1H-pyrazol-4yl]-pyrimidin-2-yl}-[4-(4-methyl-piperazin-1-ylmethyl)-phenyl]-amine] gave a melting point of 159 °C.

Compound `Cc1ccc(-c2nn(C)cc2-c2ccnc(Nc3ccc(N4CCN(C)CC4)cc3)n2)cc1` [Example 64, [4-(4-Methyl-piperazin-1-yl)-phenyl]-[4-(1-methyl-3-p-tolyl-1H-pyrazol-4-yl)-pyrimidin-2-yl]-amine] showed a melting point of 203 °C.

Take `Cc1ccc(-c2n[nH]cc2-c2ccnc(Nc3ccc(CN4CCN(CCO)CC4)cc3)n2)cc1` [Example 111, 2-(4-{4-[4-(3-p-Tolyl-1H-pyrazol-4yl)-pyrimidin-2-ylamino]-benzyl}piperazin-1-yl)-ethanol]: the melting point is 233 °C.

The compound `CN1CCC(COc2cccc(Nc3nccc(-c4cn(C)nc4-c4ccc(Cl)cc4)n3)c2)CC1` [Example 112, {4-[3-(4-Chloro-phenyl)-1-methyl-1H-pyrazol-4-yl]-pyrimidin-2-yl}-[3-(1-methyl-piperidin-4-ylmethoxy)-phenyl]-amine] gave a melting point of 138 °C.

In turn, `Cc1ccc(-c2c(-c3ccnc(Nc4ccc(CN5CCN(C)CC5)cc4)n3)cnn2C2CCN(C)CC2)cc1` [Example 84, [4-(4-Methyl-piperazin-1-ylmethyl)-phenyl]-{4-[1-(1-methyl-piperidin-4-yl)-5-p-tolyl-1H-pyrazol-4-yl]-pyrimidin-2-yl}-amine] showed a melting point of 187 °C.

Compound `CN1CCN(Cc2ccc(Nc3nccc(-c4cn(C)nc4-c4ccc(Cl)cc4)n3)cc2)CC1` [Example 78, {4-[3-(4-Chloro-phenyl)-1-methyl-1H-pyrazol-4yl]-pyrimidin-2-yl}-[4-(4-methyl-piperazin-1-ylmethyl)-phenyl]-amine] had a melting point of 166 °C.

Regarding `Clc1ccc(-c2n[nH]cc2-c2ccnc(Nc3ccc(N4CCNCC4)cc3)n2)cc1` [Example 122, {4-[3-(4-Chloro-phenyl)-1H-pyrazol-4yl]-pyrimidin-2-yl}-(4piperazin-1-yl-phenyl)-amine], the melting point is 214 °C.

In turn, `Cc1ccc(-c2n[nH]cc2-c2ccnc(Nc3ccc(C(=O)O)cc3)n2)cc1` [Example 58, 4-[4-(3-p-Tolyl-1H-pyrazol-4-yl)-pyrimidin-2-ylamino]-benzoic acid] showed a melting point of 341 °C.

In turn, `COc1cccc(Nc2nccc(-c3cnn(CCN(C)C)c3-c3ccc(Cl)cc3)n2)c1` [Example 75, {-4-[5-(4Chloro-phenyl)-1-(2-dimethylamino-ethyl)-1H-pyrazol-4-yl]-pyrimidin-2-yl}-(3-methoxy-phenyl)-amine] gave a melting point of 118 °C.

`CCN1CCN(Cc2ccc(Nc3nccc(-c4c[nH]nc4-c4ccccc4)n3)cc2)CC1` [Example 115, [4-(4-Ethyl-piperazin-1-ylmethyl)-phenyl]-[4-(3-phenyl-1H-pyrazol-4-yl)-pyrimidin-2-yl]-amine] came in with a melting point of 227 °C.

`COc1cccc(Nc2nccc(-c3cnn(CC4CCN(C)CC4)c3-c3ccc(Cl)cc3)n2)c1` [Example 108, {4-[5-(4-Chloro-phenyl)-1-(1-methyl-piperidin-4-ylmethyl)-1H-pyrazol-4-yl]-pyrimidin-2-yl}-(3-methoxy-phenyl)-amine] yielded a melting point of 180 °C.

The compound `COc1cc(Nc2nccc(-c3c[nH]nc3-c3cccc(C)c3C)n2)cc(OC)c1OC` [Example 51, {4-[3-(2,3-Dimethyl-phenyl)-1H-pyrazol-4-yl]-pyrimidin-2-yl}-(3,4,5-trimethoxy-phenyl)-amine] showed a melting point of 249 °C.

In turn, `CN1CCC(n2ncc(-c3ccnc(Nc4ccc(CN5CCN(C)CC5)cc4)n3)c2-c2ccc(Cl)cc2)CC1` [Example 81, {4-[5-(4-Chloro-phenyl)-1-(1-methyl-piperidin-4yl)-1H-pyrazol-4yl]-pyrimidin-2-yl}-[4-(4methyl-piperazin-1-ylmethyl)-phenyl]-amine] came in with a melting point of 180 °C.

As to `COc1cc(OC)cc(-c2n[nH]cc2-c2ccnc(Nc3cccc(S(N)(=O)=O)c3)n2)c1` [Example 113, 3-{4-[3-(3,5-Dimethoxy-phenyl)-1H-pyrazol-4-yl]-pyrimidin-2-ylamino}-benzenesulfonamide], the melting point was found to be 257 °C.

`Cc1ccc(-c2c(-c3ccnc(Nc4ccc(N5CCN(C)CC5)cc4)n3)cnn2CCN(C)C)cc1` [Example 54, {4-[1-(2-Dimethylamino-ethyl)-5-p-tolyl-1H-pyrazol-4-yl]-pyrimidin-2-yl}-[4-(4-methyl-piperazin-1-yl)-phenyl]-amine] registered a melting point of 184 °C.

With `COc1cc(Nc2nccc(-c3c[nH]nc3-c3ccccc3Cl)n2)cc(OC)c1OC` [Example 53, {4-[3-(2-Chloro-phenyl)-1H-pyrazol-4-yl]-pyrimidin-2-yl}-(3,4,5-trimethoxy-phenyl)-amine], the melting point was 257.5 °C.

In turn, `Cc1ccc(-c2c(-c3ccnc(Nc4ccc(CN5CCN(C)CC5)cc4)n3)cnn2CCN(C)C)cc1` [Example 82, {4-[1-(2-Dimethylamino-ethyl)-5-p-tolyl-1H-pyrazol-4-yl]-pyrimidin-2-yl}-[4-(4 methyl-piperazin-1-ylmethyl)-phenyl]-amine] gave a melting point of 123 °C.

For the compound `COc1ccc(Nc2nccc(-c3cnn(C)c3-c3ccc(Cl)cc3Cl)n2)cc1OC` [Example 56, {4-[5-(2,4-Dichloro-phenyl)-1-methyl-1H-pyrazol-4-yl]-pyrimidin-2-yl}-(3,4-dimethoxy-phenyl)-amine], the melting point amounted to 157 °C.

Turning to `CCN1CCN(c2ccc(Nc3nccc(-c4c[nH]nc4-c4ccc(Cl)cc4)n3)cc2)CC1` [Example 121, {4-[3-(4-Chloro-phenyl)-1H-pyrazol-4yl]-pyrimidin-2-yl}-[4-(4-ethyl-piperazin-1-yl)-phenyl]-amine], the melting point came out at 268 °C.

`Cc1ccc(-c2n[nH]cc2-c2ccnc(Nc3ccc(C(=O)N4CCN(C)CC4)cc3)n2)cc1` [Example 59, (4Methyl-piperazin-1-yl)-{4-[4-(3-p-tolyl-1H-pyrazol-4-yl)-pyrimidin-2-ylamino]-phenyl}-methanone] registered a melting point of 264 °C.

`Cc1ccc(-c2c(-c3ccnc(Nc4ccc(N5CCN(C)CC5)cc4)n3)cnn2C)cc1` [Example 63, [4-(4-Methyl-piperazin-1-yl)-phenyl]-[4-(1-methyl-5-p-tolyl-1H-pyrazol-4-yl)-pyrimidin-2-yl]-amine] yielded a melting point of 261 °C.
